Source: patent US8163779B2, “Glucokinase activators” (Takeda San Diego, Inc., priority 2006, dated 2012)

The compounds below were run against T1, glucokinase (GK) (Homo sapiens, UniProt P35557) (assay: enzymatic glucokinase activity assay (ATP consumption, KinaseGlo luminescence)). Details: recombinant GK residues 12-465; 5 μM ATP, 5 mM Glucose; Kact = concentration that displays 50% of the maximal increase in GK activity; read-out: pKact.
T1 construct: I.D. No. 1 corresponds to residues 12-465 of glucokinase; made in house; host or cells: E. coli DH10b-T1r
T1 sequence (P35557 with tags, fused parts or gaps isoform P35557-2): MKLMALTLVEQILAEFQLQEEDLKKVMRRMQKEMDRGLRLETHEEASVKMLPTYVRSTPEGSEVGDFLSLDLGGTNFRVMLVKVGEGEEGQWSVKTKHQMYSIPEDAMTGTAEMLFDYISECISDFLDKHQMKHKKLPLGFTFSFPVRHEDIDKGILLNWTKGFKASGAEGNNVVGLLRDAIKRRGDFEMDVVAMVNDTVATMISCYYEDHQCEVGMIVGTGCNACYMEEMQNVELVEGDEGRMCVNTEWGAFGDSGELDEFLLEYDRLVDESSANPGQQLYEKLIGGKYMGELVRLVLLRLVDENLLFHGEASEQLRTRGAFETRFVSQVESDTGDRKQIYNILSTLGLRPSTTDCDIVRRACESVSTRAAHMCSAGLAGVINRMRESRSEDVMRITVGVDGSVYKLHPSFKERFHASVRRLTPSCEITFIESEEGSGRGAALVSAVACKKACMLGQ
Format: biochemical
Source text: The activity of compounds as glucokinase activators may be assayed in vitro, in vivo or in a cell line. Provided below is an enzymatic glucokinase activity assay.
Purified glucokinase may be obtained as follows. […] SEQ.
The expression of recombinant glucokinase protein may be carried out by transformation and growth of DH10b-T1r E. coli cells incorporating the (pFLAG-CTC) plasmid in LB media. Protein expression can be induced in this system by the addition of IPTG to the culture medium.
Recombinant protein may be isolated from cellular extracts by passage over Sepharose Q Fast Flow resin (Pharmacia). This partially purified GK extract may then be further purified by a second passage over Poros HQ 10 (Applied Biosystems). The purity of GK may be determined on denaturing SDS-PAGE gel. Purified GK may then be concentrated to a final concentration of 20.0 mg/ml. After flash freezing in liquid nitrogen, the proteins can be stored at −78° C. in a buffer containing 25 mM TRIS-HCl pH 7.6, 50 mM NaCl, and 0.5 mM TCEP.
The activation properties of compounds for GK may be determined using a black 384-well-plate format under the following reaction conditions: 25 mM Hepes pH 7.2, 25 mM NaCl, 10 mM MgCl2, 0.01% Brij35, 1 mM DTT, 5 μM ATP, 5 mM Glucose 2% DMSO. The amount of ATP consumed may be determined quantitatively by addition of equal volume of luciferase reagent (luciferase+beetle luciferin—KinaseGlo Luminescent Kinase Assay kit from Promega). The luminescence intensity may be measured by using the Analyst HT from LJL Biosystems.
The reaction mixture may then be incubated at room temperature for 60 min, and quenched and developed by addition of 10 μL of luciferase reagent. Luminescence intensities of the resulting reaction mixtures may be measured after a 10 min incubation at room temperature. The luminescence intensity may be measured by using the Analyst HT from LJL Biosystems.
pKact values may be calculated by non-linear curve fitting of the compound concentrations and luminescence intensities to a standard inhibition/activation equation.

Question: For `O=C(Nc1nc2cccnc2s1)[C@H](CC1CCOCC1)n1ccc(S(=O)(=O)C2CC2)cc1=O` [Example 52, (S)-2-(4-(cyclopropylsulfonyl)-2-oxopyridin-1(2H)-yl)-3-(tetrahydro-2H-pyran-4-yl)-N-(thiazolo[5,4-b]pyridin-2-yl)propanamide], which EC50 is on record?
Answer: 1.58 to 15.8 µM

Question: How did the EC50 turn out when `CS(=O)(=O)c1ccn(C(CC2CCOCC2)C(=O)Nc2ncc(CCC(=O)O)s2)c(=O)c1` (stereo not shown) [Example 53, 3-(2-(2-(4-(methylsulfonyl)-2-oxopyridin-1(2H)-yl)-3-(tetrahydro-2H-pyran-4-yl)propanamido)thiazol-5-yl)propanoic acid] was run?
Answer: > 15.8 µM

Question: `Cc1occc1S(=O)(=O)c1cc(C)n(C(CC2CCCCC2)C(=O)Nc2ncc(Cl)s2)c(=O)c1` (stereo not shown) [Example 54, N-(5-chlorothiazol-2-yl)-3-cyclohexyl-2-(6-methyl-4-(2-methylfuran-3-ylsulfonyl)-2-oxopyridin-1(2H)-yl)propanamide] was tested. Which EC50 did it give?
Answer: < 1.58 µM

Question: How did the EC50 turn out when `Cc1cnc(NC(=O)C(CC2CCOCC2)n2ccc(OCc3ccccc3)cc2=O)s1` (stereo not shown) [Example 55, 2-(4-(benzyloxy)-2-oxopyridin-1(2H)-yl)-N-(5-methylthiazol-2-yl)-3-(tetrahydro-2H-pyran-4-yl)propanamide] was run?
Answer: 1.58 to 15.8 µM

Question: How did the EC50 turn out when `N#Cc1cnc(NC(=O)[C@@H](CC2CCOCC2)n2ccc(S(=O)(=O)C3CCCC3)cc2=O)s1` [Example 56, (R)-N-(5-cyanothiazol-2-yl)-2-(4-(cyclopentylsulfonyl)-2-oxopyridin-1(2H)-yl)-3-(tetrahydro-2H-pyran-4-yl)propanamide] was run?
Answer: > 15.8 µM

Question: For `N#Cc1cnc(NC(=O)[C@H](CC2CCOCC2)n2ccc(S(=O)(=O)C3CCCC3)cc2=O)s1` [Example 57, (S)-N-(5-cyanothiazol-2-yl)-2-(4-(cyclopentylsulfonyl)-2-oxopyridin-1(2H)-yl)-3-(tetrahydro-2H-pyran-4-yl)propanamide], which EC50 is on record?
Answer: 1.58 to 15.8 µM

Question: For `COc1ccc2nc(NC(=O)[C@@H](CC3CCOCC3)n3ccc(S(=O)(=O)C4CCCC4)cc3=O)sc2n1` [Example 58, (R)-2-(4-(cyclopentylsulfonyl)-2-oxopyridin-1(2H)-yl)-N-(5-methoxythiazolo[5,4-b]pyridin-2-yl)-3-(tetrahydro-2H-pyran-4-yl)propanamide], which EC50 is on record?
Answer: > 15.8 µM

Question: `COc1ccc2nc(NC(=O)[C@H](CC3CCOCC3)n3ccc(S(=O)(=O)C4CCCC4)cc3=O)sc2n1` [Example 59, (S)-2-(4-(cyclopentylsulfonyl)-2-oxopyridin-1(2H)-yl)-N-(5-methoxythiazolo[5,4-b]pyridin-2-yl)-3-(tetrahydro-2H-pyran-4-yl)propanamide] was tested. Which EC50 did it give?
Answer: < 1.58 µM

Question: With `Cc1cc(S(=O)(=O)c2cccs2)cc(=O)n1C(CC1CCCCC1)C(=O)Nc1ncc(Cl)s1` (stereo not shown) [Example 60, N-(5-chlorothiazol-2-yl)-3-cyclohexyl-2-(6-methyl-2-oxo-4-(thiophen-2-ylsulfonyl)pyridin-1(2H)-yl)propanamide] as the compound, how does the EC50 read?
Answer: < 1.58 µM

Question: Which EC50 does the source give for `Cc1cc(Br)cc(=O)n1[C@@H](CC1CCCCC1)C(=O)Nc1nccs1` [Example 61, (S)-2-(4-bromo-6-methyl-2-oxopyridin-1(2H)-yl)-3-cyclohexyl-N-(thiazol-2-yl)propanamide] here?
Answer: > 15.8 µM

Question: How did the EC50 turn out when `COc1ccc2nc(NC(=O)[C@H](CC3CCOCC3)n3c(C)cc(S(=O)(=O)c4ccoc4C)cc3=O)sc2n1` [Example 62, (S)-N-(5-methoxythiazolo[5,4-b]pyridin-2-yl)-2-(6-methyl-4-(2-methylfuran-3-ylsulfonyl)-2-oxopyridin-1(2H)-yl)-3-(tetrahydro-2H-pyran-4-yl)propanamide] was run?
Answer: 1.58 to 15.8 µM

Question: `COc1ccc2nc(NC(=O)[C@@H](CC3CCOCC3)n3c(C)cc(S(=O)(=O)c4ccoc4C)cc3=O)sc2n1` [Example 63, (R)-N-(5-methoxythiazolo[5,4-b]pyridin-2-yl)-2-(6-methyl-4-(2-methylfuran-3-ylsulfonyl)-2-oxopyridin-1(2H)-yl)-3-(tetrahydro-2H-pyran-4-yl)propanamide] was tested. Which EC50 did it give?
Answer: > 15.8 µM

Question: Which EC50 does the source give for `Cc1occc1S(=O)(=O)c1cc(C)n([C@@H](CC2CCOCC2)C(=O)Nc2ncc(Cl)s2)c(=O)c1` [Example 64, (S)-N-(5-chlorothiazol-2-yl)-2-(6-methyl-4-(2-methylfuran-3-ylsulfonyl)-2-oxopyridin-1(2H)-yl)-3-(tetrahydro-2H-pyran-4-yl)propanamide] here?
Answer: 1.58 to 15.8 µM

Question: `Cc1occc1S(=O)(=O)c1cc(C)n([C@H](CC2CCOCC2)C(=O)Nc2ncc(Cl)s2)c(=O)c1` [Example 65, (R)-N-(5-chlorothiazol-2-yl)-2-(6-methyl-4-(2-methylfuran-3-ylsulfonyl)-2-oxopyridin-1(2H)-yl)-3-(tetrahydro-2H-pyran-4-yl)propanamide] was tested. Which EC50 did it give?
Answer: > 15.8 µM

Question: With `Cn1ccc(NC(=O)C(CC2CCOCC2)n2ccc(S(=O)(=O)C3CC3)cc2=O)n1` (stereo not shown) [Example 66, 2-(4-(cyclopropylsulfonyl)-2-oxopyridin-1(2H)-yl)-N-(1-methyl-1H-pyrazol-3-yl)-3-(tetrahydro-2H-pyran-4-yl)propanamide] as the compound, how does the EC50 read?
Answer: > 15.8 µM

Question: How did the EC50 turn out when `COc1ccc2nc(NC(=O)C(CC3CCOCC3)n3ccc(S(=O)(=O)CCCO)cc3=O)sc2n1` (stereo not shown) [Example 67, 2-(4-(3-hydroxypropylsulfonyl)-2-oxopyridin-1(2H)-yl)-N-(5-methoxythiazolo[5,4-b]pyridin-2-yl)-3-(tetrahydro-2H-pyran-4-yl)propanamide] was run?
Answer: > 15.8 µM

Question: How did the EC50 turn out when `COc1ccc2nc(NC(=O)C(CC3CCCCC3)n3ccc(S(=O)(=O)C4CC4)cc3=O)sc2n1` (stereo not shown) [Example 68, 3-cyclohexyl-2-(4-(cyclopropylsulfonyl)-2-oxopyridin-1(2H)-yl)-N-(5-methoxythiazolo[5,4-b]pyridin-2-yl)propanamide] was run?
Answer: < 1.58 µM

Question: How did the EC50 turn out when `O=C(Nc1cnccn1)[C@@H](CC1CCOCC1)n1ccc(S(=O)(=O)C2CC2)cc1=O` [Example 69, (R)-2-(4-(cyclopropylsulfonyl)-2-oxopyridin-1(2H)-yl)-N-(pyrazin-2-yl)-3-(tetrahydro-2H-pyran-4-yl)propanamide] was run?
Answer: > 15.8 µM

Question: How did the EC50 turn out when `COc1ccc2nc(NC(=O)[C@@H](CC3CCOCC3)n3ccc(S(=O)(=O)CCCO)cc3=O)sc2n1` [Example 71, (R)-2-(4-(3-hydroxypropylsulfonyl)-2-oxopyridin-1(2H)-yl)-N-(5-methoxythiazolo[5,4-b]pyridin-2-yl)-3-(tetrahydro-2H-pyran-4-yl)propanamide] was run?
Answer: > 15.8 µM

Question: With `COc1ccc2nc(NC(=O)[C@H](CC3CCOCC3)n3ccc(S(=O)(=O)CCCO)cc3=O)sc2n1` [Example 72, (S)-2-(4-(3-hydroxypropylsulfonyl)-2-oxopyridin-1(2H)-yl)-N-(5-methoxythiazolo[5,4-b]pyridin-2-yl)-3-(tetrahydro-2H-pyran-4-yl)propanamide] as the compound, how does the EC50 read?
Answer: 1.58 to 15.8 µM

Question: Which EC50 does the source give for `Cn1ccc(NC(=O)[C@@H](CC2CCOCC2)n2ccc(S(=O)(=O)C3CC3)cc2=O)n1` [Example 73, (R)-2-(4-(cyclopropylsulfonyl)-2-oxopyridin-1(2H)-yl)-N-(1-methyl-1H-pyrazol-3-yl)-3-(tetrahydro-2H-pyran-4-yl)propanamide] here?
Answer: > 15.8 µM

Question: Which EC50 does the source give for `Cn1ccc(NC(=O)[C@H](CC2CCOCC2)n2ccc(S(=O)(=O)C3CC3)cc2=O)n1` [Example 74, (S)-2-(4-(cyclopropylsulfonyl)-2-oxopyridin-1(2H)-yl)-N-(1-methyl-1H-pyrazol-3-yl)-3-(tetrahydro-2H-pyran-4-yl)propanamide] here?
Answer: 1.58 to 15.8 µM
